This is an account of results in patent publication US20240352036A1, “CRYSTALLINE FORMS OF RAS INHIBITORS, COMPOSITIONS CONTAINING THE SAME, AND METHODS OF USE THEREOF” (Revolution Medicines, Inc., priority 2023, published 2024).

Holding throughout (assay type): physicochemical
Data set [1] can be described thus: storage under ambient conditions followed by XRPD. The settings on record: two weeks of storage under ambient conditions (room temperature).
Data set [2] is described as follows: variable humidity XRPD of crystalline Form 1. Particulars: 25° C., XRPD at each RH. The protocol: In another method, crystalline Form 1 was subjected to variable humidity XRPD experiments. In this experiment, two relative humidity (RH) cycles were applied at 25° C. XRPD analysis was carried out in each specific relative humidity. Cycle 1: 40% RH (initial)-40% RH (3 h)-60% RH (3 h)-80% RH (3 h)-95% RH (3 h)-80% RH (3 h)-60% RH (3 h)-40% RH (3 h)-20% RH (3 h) 0% RH (3 h); Cycle 2: 20% RH (3 h)-40% RH (3 h).

Data set [3] can be described thus: XRPD monitoring over time of pure Form 1 from a saturated diethyl ether slurry. As for the experimental part: The formation of Form 2 is indicated by the presence of an intense peak at 4.8° 2θ (FIG. 2), which is absent in pure samples of Form 1 (FIG. 1 and FIG. 3). To study the formation of Form 2, a saturated slurry of Compound A was prepared in diethyl ether, which produced pure Form 1 at time=0 hr, and this pure sample was monitored over time using XRPD analysis. A shoulder peak at 4.8° 2θ was detected after approx. 2 hours and increased in intensity compared to the original Form 1 peaks after 4 and 17 days (FIG. 4).

With `CCn1c(-c2cccnc2[C@H](C)OC)c2c3cc(ccc31)N1CCO[C@@H](C[C@H](NC(=O)[C@H](C(C)C)N(C)C(=O)C3(F)CCN(C(=O)C#CC(C)(C)N(C)C)CC3)C(=O)N3CCC[C@H](N3)C(=O)OCC(C)(C)C2)C1` (atropisomer, axis not shown) [Form 4], the “solid form stability on storage (XRPD)” value in data set [1] is listed as “converted to a disordered material”.
Take `CCn1c(-c2cccnc2[C@H](C)OC)c2c3cc(ccc31)N1CCO[C@@H](C[C@H](NC(=O)[C@H](C(C)C)N(C)C(=O)C3(F)CCN(C(=O)C#CC(C)(C)N(C)C)CC3)C(=O)N3CCC[C@H](N3)C(=O)OCC(C)(C)C2)C1` (atropisomer, axis not shown) [Form 1]: the “solid form conversion at relative humidity higher than 80% RH” value in data set [2] (two RH cycles 0-95% RH, 3 h per step, RH higher than 80%) is recorded as “converted or partially converted to Form 2”. Also, the “time until the Form 2 shoulder peak at 4.8° 2θ was detected” value in data set [3] (pure Form 1 at time=0 hr from saturated diethyl ether slurry, peak increased in intensity after 4 and 17 days) is “approx. 2 hours”. Besides, the “solid form stability over time (XRPD)” value in data set [3] (pure Form 1 monitored up to 17 days) was “may produce a mixture of Forms 1 and 2 over time”.
With `CCn1c(-c2cccnc2[C@H](C)OC)c2c3cc(ccc31)N1CCO[C@@H](C[C@H](NC(=O)[C@H](C(C)C)N(C)C(=O)C3(F)CCN(C(=O)C#CC(C)(C)N(C)C)CC3)C(=O)N3CCC[C@H](N3)C(=O)OCC(C)(C)C2)C1` (atropisomer, axis not shown) [Form 2], the “solid form conversion at relative humidity lower than 80%” value in data set [2] (two RH cycles, RH lower than 80%) is “converted back to Form 1”.
